From patent US20220105150A1, “AMPHIPATHIC ALPHA-HELICAL ANTIMICROBIAL PEPTIDES TREAT INFECTIONS BY GRAM-NEGATIVE PATHOGENS” (priority 2019, published 2022)
Values after ≈ are worked out from the molar mass of the structure shown.

Key:
[1] = Peptide hydrophobicity by RP-HPLC retention time; format: physicochemical; details: RP-HPLC retention time at pH 2, 25° C.
Procedure: Column: Zorbax 300 SB-C8, 150×2.1 mm ID, 5-μm particle size, 300-Å pore size; conditions, linear AB gradient (0.25% acetonitrile/min) at a flow-rate of 0.3 ml/min, where eluent A was 20 mM aq. TFA and eluent B was 20 mM TFA in acetonitrile and the temperature was 25° C. The sequences of the ten peptides (with seven peptides containing Lys specificity determinants at positions 13 and 16 of the non-polar face (see FIG. 1) are shown in Table 1G. Peptide denotions in FIG. 4 have been abbreviated from those shown in Table 1G; for example, D87(Lys1-6 Arg-1) has been shortened to D87(6 Arg-1). For the peptides without specificity determinants, we have added A13/A16 to the peptide denotions. It is interesting that the Dab containing peptides are more hydrophilic than the Dap containing peptides even thought the Dab containing peptides have an additional carbon atom per Dab residue.
Retention behavior in reversed-phase chromatography is an excellent method to represent overall peptide hydrophobicity. […] All ten peptides used in this study could be readily separated by reversed-phase chromatography with the seven peptides with specificity determinants being much more hydrophilic than the three control peptides without specificity determinants (FIG. 4). […]

[2] = system: Acinetobacter baumannii strains resistant to Polymyxin B and Colistin; details: for MICGM: geometric mean of MIC values from seven strains resistant to Polymyxin B and Colistin; for MIC MB9941: strain MB9941; for MIC MB9941 / MIC MB9949 / MIC MB9951 / MIC MB9952 / MIC MB9953 / MIC MB9955 / MIC MB9963: Mueller-Hinton medium, 37° C., 24 h; for MIC MB9949: strain MB9949; for MIC MB9951: strain MB9951; for MIC MB9952: strain MB9952; for MIC MB9953: strain MB9953; for MIC MB9955: strain MB9955; for MIC MB9963: strain MB9963

Q: What does the source list for `CC(=O)N[C@H](CCCCN)C(=O)N[C@H](CC(C)C)C(=O)N[C@H](CCN)C(=O)N[C@H](CO)C(=O)N[C@H](CC(C)C)C(=O)N[C@H](CC(C)C)C(=O)N[C@H](CCN)C(=O)N[C@@H](C(=O)N[C@H](CC(C)C)C(=O)N[C@H](CO)C(=O)N[C@H](CCN)C(=O)N[C@H](C)C(=O)N[C@H](C)C(=O)N[C@H](C)C(=O)N[C@H](C)C(=O)N[C@H](C)C(=O)N[C@H](CC(C)C)C(=O)N[C@H](CCN)C(=O)N[C@@H](C(=O)N[C@H](CC(C)C)C(=O)N[C@H](CC(C)C)C(=O)N[C@H](CCN)C(=O)N[C@H](C)C(=O)N[C@H](CC(C)C)C(=O)N[C@H](CO)C(=O)N[C@H](CCN)C(N)=O)[C@H](C)O)[C@H](C)O` [D86(K13A/K16A)-(Lys^1-6Dab-1), Ac-KL(Dab)SLL(Dab)TLS(Dab)AAAAAL(Dab)TLL(Dab)ALS(Dab)-amide]?
A: Hydrophobicity pH 2 tR [1]: 158.3 min; MICGM [2]: 0.9 µM; MIC MB9941 [2]: 1.5 µM (≈ 3.87 µg/mL); MIC MB9949 [2]: 0.8 µM (≈ 2.07 µg/mL); MIC MB9951 [2]: 0.8 µM (≈ 2.07 µg/mL); MIC MB9952 [2]: 0.8 µM (≈ 2.07 µg/mL); MIC MB9953 [2]: 0.8 µM (≈ 2.07 µg/mL); MIC MB9955 [2]: 0.8 µM (≈ 2.07 µg/mL); MIC MB9963 [2]: 0.8 µM (≈ 2.07 µg/mL)

Q: Which results are given for `CC(=O)N[C@H](CCCCN)C(=O)N[C@H](CC(C)C)C(=O)N[C@H](CN)C(=O)N[C@H](CO)C(=O)N[C@H](CC(C)C)C(=O)N[C@H](CC(C)C)C(=O)N[C@H](CN)C(=O)N[C@@H](C(=O)N[C@H](CC(C)C)C(=O)N[C@H](CO)C(=O)N[C@H](CN)C(=O)N[C@H](C)C(=O)N[C@H](C)C(=O)N[C@H](C)C(=O)N[C@H](C)C(=O)N[C@H](C)C(=O)N[C@H](CC(C)C)C(=O)N[C@H](CN)C(=O)N[C@@H](C(=O)N[C@H](CC(C)C)C(=O)N[C@H](CC(C)C)C(=O)N[C@H](CN)C(=O)N[C@H](C)C(=O)N[C@H](CC(C)C)C(=O)N[C@H](CO)C(=O)N[C@H](CN)C(N)=O)[C@H](C)O)[C@H](C)O` [D105(K13A/K16A)-(Lys^1-6Dap-1), Ac-KL(Dap)SLL(Dap)TLS(Dap)AAAAAL(Dap)TLL(Dap)ALS(Dap)-amide]?
A: Hydrophobicity pH 2 tR [1]: 172.3 min; MICGM [2]: 1.3 µM; MIC MB9941 [2]: 1.6 µM (≈ 4 µg/mL); MIC MB9949 [2]: 0.8 µM (≈ 2 µg/mL); MIC MB9951 [2]: 0.8 µM (≈ 2 µg/mL); MIC MB9952 [2]: 1.6 µM (≈ 4 µg/mL); MIC MB9953 [2]: 1.6 µM (≈ 4 µg/mL); MIC MB9955 [2]: 1.6 µM (≈ 4 µg/mL); MIC MB9963 [2]: 1.6 µM (≈ 4 µg/mL)
